We go through 19 compounds from patent publication US20120065066A1, “NOVEL HERBICIDES” (SYNGENTA CROP PROTECTION LLC, priority 2009, published 2012).

Holding throughout (format): in vivo
What all share (settings): 312 h, evaluated after 13 days, 100=total damage to plant, 0=no damage to plant

Assay [1] deals with Avena fatua (AVEFA). In words: Test Example B, post-emergence herbicidal test. The method, then:
(§1) Seeds of a variety of test species were sown in standard soil in pots. After cultivation for one day (pre-emergence) or after 8 days cultivation (post-emergence) under controlled conditions in a glasshouse (at 24/16° C., day/night; 14 hours light; 65% humidity), the plants were sprayed with an aqueous spray solution derived from the formulation of the technical active ingredient in acetone/water (50:50) solution containing 0.5% Tween 20 (polyoxyethelyene sorbitan monolaurate, CAS RN 9005-64-5). The test plants were then grown in a glasshouse under controlled conditions in a glasshouse (at 24/16° C., day/night; 14 hours light; 65% humidity) and watered twice daily. After 13 days for pre and post-emergence, the test was evaluated (100=total damage to plant; 0=no damage to plant). Test Plants: Setaria faberi (SETFA), Alopecurus myosuroides (ALOMY), Echinochloa crus-galli (ECHCG), and Avena fatua (AVEFA).

In assay [2] the test system is Alopecurus myosuroides (ALOMY). In words: Test Example B, post-emergence herbicidal test. On the procedure:
as §1

Assay [3] concerns Echinochloa crus-galli (ECHCG). The assay can be described thus: Test Example B, post-emergence herbicidal test. The method, then:
as §1

Assay [4] relates to Avena fatua (AVEFA). In words: Test Example B, pre-emergence herbicidal test. The method, then:
as §1

Assay [5] concerns Alopecurus myosuroides (ALOMY). In words: Test Example B, pre-emergence herbicidal test. The method, then: as §1
Assay [6] concerns Echinochloa crus-galli (ECHCG). The assay can be described thus: Test Example B, pre-emergence herbicidal test. The method, then:
as §1

Each structure is given as a SMILES string.

On to `CCc1ccc(-c2ccc(Cl)cc2)cc1C1=C(O)[C@H]2[C@H]3CC[C@H](C3)[C@H]2C1=O` (racemic) [Compound T1, rac-(3aR,4R,7S,7aS)-2-(4′-chloro-4-ethylbiphenyl-3-yl)hexahydro-4,7-methanoindene-1,3-dione], for which the pest or weed control (commonly how far the test organism was held down) at 250 g/ha in the assay on Avena fatua (AVEFA) [1] turned out to be 100%; in assay [2], 90%; in assay [3] it was 100%; in the assay on Avena fatua (AVEFA) [4], 100%; in assay [5], 70%; in assay [6], 100%.

On to `CCc1ccc(-c2ccc(Cl)cc2)cc1C1=C(O)[C@H]2[C@H]3CC[C@H](CC3)[C@H]2C1=O` (racemic) [Compound T3, rac-(3aR,7aS)-2-(4′-chloro-4-ethylbiphenyl-3-yl)hexahydro-4,7-ethanoindene-1,3-dione], for which the pest or weed control at 250 g/ha in the assay with Avena fatua (AVEFA) [1] was determined as 90%; in assay [2], 100%; in assay [3], 100%; in the assay with Avena fatua (AVEFA) [4], 70%; in assay [5], 70%; in assay [6] it was 100%.

For the compound `CCc1ccc(-c2ccc(Cl)cc2)cc1C1=C(O)[C@@H]2[C@H](C1=O)[C@@H]1C=C[C@H]2CC1` (racemic) [Compound T6, rac-(3aR,4S,7R,7aS)-2-(4′-chloro-4-ethylbiphenyl-3-yl)-3a,4,7,7a-tetrahydro-4,7-ethanoindene-1,3-dione], the pest or weed control at 250 g/ha was 60% in the assay with Avena fatua (AVEFA) [1]; 70% in assay [2]; 100% in assay [3]; 40% in the assay with Avena fatua (AVEFA) [4]; 60% in assay [5]; 100% in assay [6].

On to `CCc1ccc(-c2ccc(Cl)cc2F)cc1C1=C(O)[C@H]2[C@H]3CC[C@H](CC3)[C@H]2C1=O` (racemic) [Compound T10, rac-(3aR,7aS)-2-(4′-chloro-4-ethyl-2′-fluorobiphenyl-3-yl)hexahydro-4,7-ethanoindene-1,3-dione], for which the pest or weed control at 250 g/ha with Avena fatua (AVEFA) [1] was found to be 0%; in assay [2] it was 0%; in assay [3] it was 90%; with Avena fatua (AVEFA) [4], 0%; in assay [5], 0%; in assay [6], 90%.

In the case of `CCc1ccc(-c2ccc(Cl)cc2F)cc1C1=C(O)[C@H]2[C@H]3CC[C@H](C3)[C@H]2C1=O` (racemic) [Compound T28, rac-(3aR,4R,7S,7aS)-2-(4′-chloro-4-ethyl-2′-fluorobiphenyl-3-yl)-hexahydro-4,7-methanoindene-1,3-dione], the pest or weed control at 250 g/ha in the assay on Avena fatua (AVEFA) [1] amounted to 10%; in assay [2] it was 30%; in assay [3], 90%; with Avena fatua (AVEFA) [4], 90%; in assay [5], 60%; in assay [6] it was 100%.

`Cc1ccc(-c2ccc(Cl)cc2)cc1C1=C(O)[C@H]2[C@H]3CC[C@H](C3)[C@H]2C1=O` [Compound T2]: the pest or weed control at 250 g/ha with Avena fatua (AVEFA) [1] is 60%; in assay [2], 40%; in assay [3], 100%; with Avena fatua (AVEFA) [4] it was 80%; in assay [5], 30%; in assay [6] it was 100%.

For the compound `Cc1ccc(-c2ccc(Cl)cc2)cc1C1=C(O)[C@H]2[C@H]3CC[C@H](CC3)[C@H]2C1=O` [Compound T4], the pest or weed control at 250 g/ha is 80% with Avena fatua (AVEFA) [1]; 70% in assay [2]; 100% in assay [3]; 70% with Avena fatua (AVEFA) [4]; 50% in assay [5]; 100% in assay [6].

`CCc1ccc(-c2ccc(Cl)cc2Cl)cc1C1=C(O)[C@H]2[C@H]3CC[C@H](CC3)[C@H]2C1=O` [Compound T11]: the pest or weed control at 250 g/ha in the assay with Avena fatua (AVEFA) [1] stood at 100%; in assay [2], 90%; in assay [3] it was 100%; in the assay on Avena fatua (AVEFA) [4], 0%; in assay [5], 0%; in assay [6], 60%.

As for `CCc1ccc(-c2ccc(Cl)cc2C)cc1C1=C(O)[C@H]2[C@H]3CC[C@H](CC3)[C@H]2C1=O` [Compound T12], the pest or weed control at 250 g/ha in the assay on Avena fatua (AVEFA) [1] is 40%; in assay [2], 90%; in assay [3], 100%; in the assay on Avena fatua (AVEFA) [4], 20%; in assay [5], 60%; in assay [6], 100%.

As to `CCc1ccc(-c2ccc(Cl)c(Cl)c2)cc1C1=C(O)[C@H]2[C@H]3CC[C@H](CC3)[C@H]2C1=O` [Compound T13], the pest or weed control at 250 g/ha in the assay with Avena fatua (AVEFA) [1] is 60%; in assay [2], 60%; in assay [3], 100%; in the assay with Avena fatua (AVEFA) [4], 0%; in assay [5] it was 20%; in assay [6], 90%.

Turning to `CCc1ccc(-c2ccc(Cl)c(OC)c2)cc1C1=C(O)[C@H]2[C@H]3CC[C@H](CC3)[C@H]2C1=O` [Compound T14], the pest or weed control at 250 g/ha came out at 0% in the assay with Avena fatua (AVEFA) [1]; 0% in assay [2]; 90% in assay [3]; 70% in the assay on Avena fatua (AVEFA) [4]; 80% in assay [5]; 100% in assay [6].

Regarding `CCc1ccc(-c2cc(Cl)sc2Cl)cc1C1=C(O)[C@H]2[C@H]3CC[C@H](CC3)[C@H]2C1=O` [Compound T15], the pest or weed control at 250 g/ha with Avena fatua (AVEFA) [1] was determined as 30%; in assay [2], 40%; in assay [3], 80%; with Avena fatua (AVEFA) [4], 0%; in assay [5], 0%; in assay [6], 30%.

`CCc1ccc(-c2ccc(Cl)c(C(F)(F)F)c2)cc1C1=C(O)[C@H]2[C@H]3CC[C@H](CC3)[C@H]2C1=O` [Compound T16]: the pest or weed control at 250 g/ha with Avena fatua (AVEFA) [1] came out at 0%; in assay [2], 0%; in assay [3], 30%; in the assay with Avena fatua (AVEFA) [4] it was 20%; in assay [5], 60%; in assay [6], 100%.

Consider `CCc1ccc(-c2ccc(Cl)s2)cc1C1=C(O)[C@H]2[C@H]3CC[C@H](CC3)[C@H]2C1=O` [Compound T17], for which the pest or weed control at 250 g/ha in the assay with Avena fatua (AVEFA) [1] is 50%; in assay [2], 40%; in assay [3] it was 90%; in the assay with Avena fatua (AVEFA) [4], 90%; in assay [5], 80%; in assay [6], 100%.

Regarding `CCc1ccc(-c2ccc(Cl)c(F)c2)cc1C1=C(O)[C@H]2[C@H]3CC[C@H](CC3)[C@H]2C1=O` [Compound T18], the pest or weed control at 250 g/ha in the assay on Avena fatua (AVEFA) [1] amounted to 100%; in assay [2], 100%; in assay [3] it was 100%; in the assay with Avena fatua (AVEFA) [4], 50%; in assay [5], 50%; in assay [6] it was 90%.

As for `CCc1ccc(-c2c(F)cc(Cl)cc2F)cc1C1=C(O)[C@H]2[C@H]3CC[C@H](CC3)[C@H]2C1=O` [Compound T20], the pest or weed control at 250 g/ha (in the assay on Avena fatua (AVEFA) [1]; in assay [2]; in assay [3]; in the assay on Avena fatua (AVEFA) [4]; in assay [5]; in assay [6]) was 100% in each case.

Take `CCc1ccc(-c2ccc(Cl)cc2Cl)cc1C1=C(O)[C@H]2[C@H]3CC[C@H](C3)[C@H]2C1=O` [Compound T29]: the pest or weed control at 250 g/ha in the assay with Avena fatua (AVEFA) [1] amounted to 0%; in assay [2] it was 30%; in assay [3], 100%; in the assay with Avena fatua (AVEFA) [4], 90%; in assay [5], 30%; in assay [6], 100%.

As to `CCc1ccc(-c2ccc(Cl)cc2C)cc1C1=C(O)[C@H]2[C@H]3CC[C@H](C3)[C@H]2C1=O` [Compound T30], the pest or weed control at 250 g/ha is 0% in the assay on Avena fatua (AVEFA) [1]; 0% in assay [2]; 90% in assay [3]; 30% in the assay on Avena fatua (AVEFA) [4]; 40% in assay [5]; 100% in assay [6].

Regarding `CCc1ccc(-c2ccc(Cl)c(Cl)c2)cc1C1=C(O)[C@H]2[C@H]3CC[C@H](C3)[C@H]2C1=O` [Compound T31], the pest or weed control at 250 g/ha in the assay with Avena fatua (AVEFA) [1] was found to be 70%; in assay [2] it was 60%; in assay [3], 100%; in the assay with Avena fatua (AVEFA) [4] it was 70%; in assay [5], 20%; in assay [6] it was 80%.
